Experimental data: patent US5336757A, “Antibacterial peptide and methods of use” (Harbor Branch Oceanographic Institution, Inc., priority 1992, dated 1994)
Values after ≈ are worked out from the molar mass of the structure shown. Bridge positions count the residues as written; N and C are the ends. Square brackets hold non-standard residues; d marks the D form. Peptide text beside a SMILES is read from it. * marks the point of attachment. Phe(4-Br) = N[C@@H](Cc1ccc(Br)cc1)C(=O)O; Ile(3-Me) = CCC(C)(C)[C@H](N)C(=O)O; Cya = N[C@@H](CS(=O)(=O)O)C(=O)O; NMeQ = CN[C@@H](CCC(N)=O)C(=O)O; Tle = CC(C)(C)[C@H](N)C(=O)O; For = O=C*

How the values were obtained:
[1] = system: Bacillus subtilis; assay type: cell-based
Experimental: Bacillus subtilis: Standard spore stocks (ATCC strain 6633) were purchased from Difco (#0453-36-0). Two-fold dilutions of polydiscamide A were prepared in 50 μL volumes of a suitable solvent using 96-well microtiter plates. In a separate 96-well plate, 35 μL volumes of Mueller-Hinton broth were placed in each well. The compound (5 μL) was then transferred to the broth. An inoculum of B. subtilis in the appropriate medium was added to give a cell density of 1000 cells/mL and a total volume of 50 μL. Plates were incubated at 37° C. overnight.

[2] = system: P388 murine leukemia cells; conditions: 48 h
Experimental: Polydiscamide A was tested for toxicity against P388 murine leukemia cells and A549 human lung carcinoma cells.
The P388 cells were maintained in Roswell Park Memorial Institute medium 1640 (RPMI-1640) supplemented with 10% horse serum and cultured in plastic tissue culture flasks and kept in an incubator at 37° C. in humidified air containing 5% CO2. The A549 cells were similarly maintained in RPMI-1640 but supplemented with 10% fetal bovine serum. Antibiotic-free stock cultures of P388 and A549 cells were subcultured to 10^5 cells/ml by dilutions in fresh growth medium at 2 to 5 day intervals. […]
To quantitate the effects of polydiscamide A or its analogs on cell proliferation, 75 μl warm growth medium containing 5 mg/ml MTT was added to each well. […] To spectrophotometrically quantitate formation of reduced formazan, plates were centrifuged (900 g, 5 minutes), culture fluids were removed by aspiration, and 200 μl of acidified isopropanol (2 ml concentrated HCl/L isopropanol) added per well. The absorbance of the resulting solutions was measured at 570 nm with a plate reader (MR700 Microplate Reader, Dynatech Laboratories, Chantilly, Va.). […]

[3] = system: A549 human lung carcinoma cells; conditions: 72 h
Experimental: P388 murine leukemia cells obtained from Dr. J. Mayo, National Cancer Institute, Bethesda, Md., and A549 cells were obtained from the American Type Culture Collection, Rockville, Md. The P388 cells were maintained in Roswell Park Memorial Institute medium 1640 (RPMI-1640) supplemented with 10% horse serum and cultured in plastic tissue culture flasks and kept in an incubator at 37° C. in humidified air containing 5% CO2. The A549 cells were similarly maintained in RPMI-1640 but supplemented with 10% fetal bovine serum. Antibiotic-free stock cultures of P388 and A549 cells were subcultured to 10^5 cells/ml by dilutions in fresh growth medium at 2 to 5 day intervals. […]
To quantitate the effects of polydiscamide A or its analogs on cell proliferation, 75 μl warm growth medium containing 5 mg/ml MTT was added to each well. […] To spectrophotometrically quantitate formation of reduced formazan, plates were centrifuged (900 g, 5 minutes), culture fluids were removed by aspiration, and 200 μl of acidified isopropanol (2 ml concentrated HCl/L isopropanol) added per well. The absorbance of the resulting solutions was measured at 570 nm with a plate reader (MR700 Microplate Reader, Dynatech Laboratories, Chantilly, Va.).

CCC(C)(C)[C@H](NC(=O)[C@@H](NC(=O)[C@@H]1CCCN1C(=O)[C@H](Cc1ccc(Br)cc1)NC(=O)[C@H](C)NC=O)C(C)(C)C)C(=O)N[C@@H](Cc1c[nH]c2ccccc12)C(=O)N[C@@H](CCCNC(=N)N)C(=O)N[C@@H](CS(=O)(=O)O)C(=O)N[C@@H]1C(=O)N(C)[C@@H](CCC(N)=O)C(=O)N[C@@H](C(C)C)C(=O)N2CCC[C@H]2C(=O)N[C@@H](CC(N)=O)C(=O)O[C@@H]1C [polydiscamide A] (For-A[Phe(4-Br)]P[Tle][Ile(3-Me)]WR[Cya]T[NMeQ]VPN; ester 9-C)
MIC against B. subtilis [1]: 3.1 µg/mL (≈ 1.81 µM) | IC50 against mouse leukemia cells (P388) [2]: 0.96 µg/mL (≈ 0.561 µM) | IC50 against cultured human lung carcinoma cells (A549) [3]: 0.66 µg/mL (≈ 0.386 µM)
